Nine compounds from US12410148B2, “Antibody drug conjugates” (Pharma Mar, S.A., priority 2013, dated 2025) can be followed below.

For data set [1], the system named is HCC-1954 cells. The experiment in a line: In vitro cytotoxicity, SRB assay, 72 h dose-response. The class given is cell-based. To be noted: Homo sapiens, HCC1954, 72 h, HER2+; 72 h; read-out: IC50. From the text: (§1) Nature Protocols, 1, 1112-1 116.
In data set [2] the test system is MCF-7 cells. Described as above. The class given is cell-based. Particulars: Homo sapiens, MCF7, 72 h, HER2−; 72 h; read-out: IC50.
Source text: as §1

Data set [3] concerns MDA-MB-231 cells. Described as above. The class given is cell-based. To be noted: Homo sapiens, MDA-MB-231, 72 h, HER2−; 72 h; read-out: IC50.
Source text: as §1

Data set [4] concerns SK-BR-3 cells. The description is as above. It is filed as cell-based. To be noted: Homo sapiens, SK-BR-3, 72 h, HER2+; 72 h; read-out: IC50.
Source text: All tumor cell lines used in this study were obtained from the American Type Culture Collection (ATCC), unless otherwise indicated; BT-474 (ATCC HTB-20, Breast Ductal Carcinoma), SK-BR-3 (ATCC HTB-30, Breast Adenocarcinoma) and HCC-1954 (ATCC CRL-2338, Breast Ductal Carcinoma), all HER2+; MDA-MB-231 (ATCC HTB-26, Breast Adenocarcinoma) and MCF-7 (ATCC HTB-22 Breast Adenocarcinoma, pleural effusion), all HER2-; SK-OV-3 (ATCC HTB-77, Ovary Adenocarcinoma), HER2+; NB-4 (Acute Promyelocytic Leukemia, APL, CD13+, M. Lanotte et al. (1991) NB4, a maturation inducible cell line with t(15;17) marker isolated from a human acute promyelocytic leukemia (M3). […] Cells were maintained at 37° C., 5% CO 2 and 95% humidity in Dulbecco's Modified Eagle's Medium (DMEM) (for MCF and MDA-MB-231 cells), RPMI-1640 (for SK-BR-3, HCC-1954, NB-4, U937, Raji, RPMI-8226, Karpas-299, MOLT-4, Raji-clone #10 and Raji-clone #18 cells), RPMI-1640+1% ITS (for BT-474 cells) or McCOyS (for SK-OV-3 cells), all media supplemented with 10% Fetal Calf Serum (FCS) and 100 units/mL penicillin and streptomycin.
For adherent cells: A colorimetric assay using sulforhodamine B (SRB) was adapted for quantitative measurement of cell growth and cytotoxicity, as described in V. Vichai and K. Kirtikara (2006) Sulforhodamine B colorimetric assay for cytotoxicity screening. […] Briefly, cells were seeded in 96-well microtiter plates and allowed to stand for 24 hours in drug-free medium before treatment with vehicle alone or the indicated compounds for 72 hours. For quantification, cells were washed twice with phosphate buffered saline (PBS), fixed for 15 min in 1% glutaraldehyde solution, rinsed twice with PBS, stained in 0.4% SRB-1% acetic acid solution for 30 min, rinsed several times with 1% acetic acid solution and air-dried. SRB was then extracted in 10 mM trizma base solution and the optical density measured at 490 nm in a microplate spectrophotometer. Cell survival was expressed as percentage of control, untreated cell survival.
Data set [5] has as its system HCC-1954, SK-BR-3, MDA-MB-231 and MCF-7 cells. Nature of the data set: In vitro cytotoxicity, whole breast cancer cell panel. The text has this: (§2) All tumor cell lines used in this study were obtained from the American Type Culture Collection (ATCC), unless otherwise indicated; BT-474 (ATCC HTB-20, Breast Ductal Carcinoma), SK-BR-3 (ATCC HTB-30, Breast Adenocarcinoma) and HCC-1954 (ATCC CRL-2338, Breast Ductal Carcinoma), all HER2+; MDA-MB-231 (ATCC HTB-26, Breast Adenocarcinoma) and MCF-7 (ATCC HTB-22 Breast Adenocarcinoma, pleural effusion), all HER2-; SK-OV-3 (ATCC HTB-77, Ovary Adenocarcinoma), HER2+; NB-4 (Acute Promyelocytic Leukemia, APL, CD13+, M. Lanotte et al. (1991) NB4, a maturation inducible cell line with t(15;17) marker isolated from a human acute promyelocytic leukemia (M3). Blood 77, 1080-1086), (CD13+) and U937 (ATCC CRL-1 593.2, Histiocytic Lymphoma, CD13+ and CD4+); Raji (ATCC CCL-86, Burkitt's Lymphoma) (CD13−, CD20+, CD5−, and CD4−); RPMI-8226 (ATCC CRM-CCL-155, Multiple Myeloma) (CD13−, CD20−, CD5− and CD4−); Karpas-299 (DSMZ ACC-31, Non-Hodgkin's Lymphoma) (CD20−, CD5+, and CD4+); MOLT-4 (ATCC CRL-1 582, Acute Lymphoblastic Leukemia, CD5+). In addition, the two Raji cell (ATCC CCL-86, Burkitt's Lymphoma) clones used in this study Raji-clone #10 (high CD5 expression) and Raji-clone18 (null CD5 expression), were provided by Dr. Juan M. Zapata (Instituto de Investigaciones Biomedicas “Alberto Sols”, CSIC-UAM, Madrid, Spain). Cells were maintained at 37° C., 5% CO 2 and 95% humidity in Dulbecco's Modified Eagle's Medium (DMEM) (for MCF and MDA-MB-231 cells), RPMI-1640 (for SK-BR-3, HCC-1954, NB-4, U937, Raji, RPMI-8226, Karpas-299, MOLT-4, Raji-clone #10 and Raji-clone #18 cells), RPMI-1640+1% ITS (for BT-474 cells) or McCOyS (for SK-OV-3 cells), all media supplemented with 10% Fetal Calf Serum (FCS) and 100 units/mL penicillin and streptomycin.
For adherent cells: A colorimetric assay using sulforhodamine B (SRB) was adapted for quantitative measurement of cell growth and cytotoxicity, as described in V. Vichai and K. Kirtikara (2006) Sulforhodamine B colorimetric assay for cytotoxicity screening. Nature Protocols, 1, 1112-1 116. Briefly, cells were seeded in 96-well microtiter plates and allowed to stand for 24 hours in drug-free medium before treatment with vehicle alone or the indicated compounds for 72 hours. For quantification, cells were washed twice with phosphate buffered saline (PBS), fixed for 15 min in 1% glutaraldehyde solution, rinsed twice with PBS, stained in 0.4% SRB-1% acetic acid solution for 30 min, rinsed several times with 1% acetic acid solution and air-dried. SRB was then extracted in 10 mM trizma base solution and the optical density measured at 490 nm in a microplate spectrophotometer. Cell survival was expressed as percentage of control, untreated cell survival.
(§3) The IC50 value refers to the concentration of compound inducing a 50% of cell death as compared to the control cell survival.
Standard dose-response (DR) curves for 72 hours were performed.

Data set [6] relates to Raji, RPMI-8226 and Karpas-299 cells. Nature of the data set: In vitro cytotoxicity, whole CD20 cell panel.
Source text: as §2
For suspension cells: A standard metabolic assay using MTT (3-(4,5-Dimethylthiazol-2-yl)-2,5-diphenyltetrazolium bromide) was adapted for quantitative measurement of cell growth and cytotoxicity, as described in T. Mosmann (1983) Rapid colorimetric assay for cellular growth and survival: Application to proliferation and cytotoxicity assays. J. Immunol. Meth., 65, 55-63. Briefly, MTT solution was added to the cell cultures at a final concentration of 0.5 mg/mL, and incubated for 1 to 4 hours at 37° C. until formazan crystals are formed. Culture medium is carefully removed from the cell cultures and formazan crystals resuspended in 100 μl DMSO. After mixing to assure solubilization, the quantity of formazan (presumably directly proportional to the number of viable cells) is measured by recording changes in absorbance at 570 nm using a plate reading spectrophotometer. Cell survival was expressed as percentage of control, untreated cell survival.
as §3
The in vitro cytotoxic activity of ADC12 along with the parent cytotoxic Compounds 1, 4, and 40, was evaluated was assayed against different human cancer cell lines expressing or not the CD20 antigen, including Raji (CD20 positive cells); RPMI-8226 and Karpas-299 (CD20 negative cells). Standard dose-response (DR) curves for 72 hours were performed.

The mark [7] stands for this setting: Homo sapiens, read-out: IC50 values along the different cell lines tested (range), four breast cell lines.
The mark [8] stands for this setting: Homo sapiens, read-out: mean IC50 value across the whole cell panel, four breast cell lines.
Where [9] appears, read: read-out: mean IC50 value across the whole cell panel, four breast cell lines.

Values joined by “and” are separate entries in the source; they are usually repeats but may differ in a detail not shown here. Equal values may be shown once. Read-outs that look alike come from different tables or passages of the source. Some results are limits rather than exact numbers.

Regarding `C/C=C\C[C@@H](C/C=C\NC(=O)[C@@H](NC(=O)\C=C/C=C\C(C)=C\[C@H](C)[C@@H]1CC=C(OC)C(=O)O1)C(C)(C)C)OC(=O)NCCCNC(=O)CCCCCN1C(=O)C=CC1=O` [Compound 5], the IC50 was 0.0195 µg/mL and 23.8 nM in data set [1]; 0.0775 µg/mL and 94.1 nM in data set [2]; 0.057 µg/mL and 69.4 nM in data set [3]; 0.019 µg/mL and 23.2 nM in data set [4]; 0.019 µg/mL to 0.077 µg/mL and 23.2 nM to 94.1 nM in data set [5] (setting [7]); 0.0433 µg/mL and 52.6 nM in data set [5] (setting [8]).

As to `C/C=C\C[C@@H](C/C=C\NC(=O)[C@@H](NC(=O)\C=C/C=C\C(C)=C\[C@H](C)[C@@H]1CC=C(OC)C(=O)O1)C(C)(C)C)OC(=O)NCCCN` [Compound 8], the IC50 in data set [1] is 0.0054 µg/mL and 8.59 nM; in data set [2], 0.00675 µg/mL and 10.7 nM; in data set [3] it was 0.00655 µg/mL and 10.4 nM; in data set [4], 0.0034 µg/mL and 5.41 nM; in data set [5] (setting [7]), 0.0034 µg/mL to 0.00675 µg/mL and 2.94 nM to 15.1 nM; in data set [5] (setting [8]), 0.00553 µg/mL and 8.79 nM. Besides, in data set [5] (setting [9]), the IC50 was 8.67 nM. Further, the “mean IC50 value across the whole cell panel” value in data set [5] (four breast cell lines) was 5.45 ng/mL.

In the case of `COC1=CC[C@@H]([C@@H](C)/C=C(C)/C=C\C=C/C(=O)N[C@H](C(=O)N/C=C\C[C@H](C/C=C(\C)Cl)OC(=O)NCCCS)C(C)(C)C)OC1=O` [Compound 15], the IC50 in data set [1] was 0.000675 µg/mL and 0.994 nM; in data set [2], 0.00145 µg/mL and 2.14 nM; in data set [3], 0.00149 µg/mL and 2.19 nM; in data set [4], 0.00048 µg/mL and 0.706 nM; in data set [5] (setting [7]) it was 0.00048 µg/mL to 0.00149 µg/mL and 0.706 nM to 2.19 nM; in data set [5] (setting [8]) it was 0.00103 µg/mL and 1.51 nM. In data set [5] (thiol containing tail), the “decrease of cytotoxic activity as compared to Compound 40” value was “about 8 fold”.

For the compound `C/C=C\C[C@@H](C/C=C\NC(=O)[C@@H](NC(=O)\C=C/C=C\C(C)=C\[C@H](C)[C@@H]1CC=C(OC)C(=O)O1)C(C)(C)C)OC(=O)NCCCNC(=O)CCS` [Compound 18], the 50% inhibitory concentration (IC50) was 0.00805 µg/mL and 11.2 nM in data set [1]; 0.0185 µg/mL and 25.8 nM in data set [2]; 0.0115 µg/mL and 16 nM in data set [3]; 0.0044 µg/mL and 6.14 nM in data set [4]; 0.0044 µg/mL to 0.0185 µg/mL and 6.14 nM to 25.8 nM in data set [5] (setting [7]); 0.0106 µg/mL and 14.8 nM in data set [5] (setting [8]).

Take `CC#CC[C@@H](C/C=C\NC(=O)[C@@H](NC(=O)\C=C/C=C\C(C)=C\[C@H](C)[C@@H]1CC=C(OC)C(=O)O1)C(C)(C)C)OC(=O)NCCCN` [Compound 24]: the IC50 in data set [1] is 0.018 µg/mL and 28.7 nM; in data set [2], 0.0165 µg/mL and 26.3 nM; in data set [3] it was 0.0175 µg/mL and 27.9 nM; in data set [4], 0.009 µg/mL and 14.4 nM; in data set [5] (Homo sapiens, read-out: IC50 values across the different cell lines tested (range), four breast cell lines), 9 to 18 ng/mL; in data set [5] (setting [7]), 14 nM to 28 nM and 0.009 µg/mL to 0.018 µg/mL. The IC50 in data set [5] (setting [8]) was 0.015 µg/mL and 24 nM. Moreover, the “decrease of cytotoxic activity as compared to Compound 41” value in data set [5] (1,3-propylenediamine group) is recorded as “about 2 logs”. For the same compound, the “mean IC50 value across the whole cell panel” value in data set [5] (four breast cell lines) came out at 24 nM.

With `CC#CC[C@@H](C/C=C\NC(=O)[C@@H](NC(=O)\C=C/C=C\C(C)=C\[C@H](C)[C@@H]1CC=C(OC)C(=O)O1)C(C)(C)C)OC(=O)NCCCNC(=O)CCCCCN1C(=O)C=CC1=O` [Compound 25], the IC50 in data set [1] was 0.044 µg/mL and 53.7 nM; in data set [2], 0.053 µg/mL and 64.6 nM; in data set [3] it was > 0.1 µg/mL and > 122 nM; in data set [4], 0.0255 µg/mL and 31.1 nM; in data set [5] (setting [7]), 0.025 µg/mL to 0.053 µg/mL and 31 nM to 65 nM; in data set [5] (setting [8]), 41 ng/mL. The “mean IC50 value across the whole cell panel” value in data set [5] (four breast cell lines) is 49 nM.

Consider `CC#CC[C@@H](C/C=C\NC(=O)[C@@H](NC(=O)\C=C/C=C\C(C)=C\[C@H](C)[C@@H]1CC=C(OC)C(=O)O1)C(C)(C)C)OC(=O)NCCCNC(=O)CCS` [Compound 27], for which the IC50 was 0.0165 µg/mL and 23.1 nM in data set [1]; 0.039 µg/mL and 54.6 nM in data set [2]; 0.0345 µg/mL and 48.3 nM in data set [3]; 0.0105 µg/mL and 14.7 nM in data set [4]; 0.0105 µg/mL to 0.039 µg/mL and 15 nM to 55 nM in data set [5] (setting [7]); 0.025 µg/mL and 35 nM in data set [5] (setting [8]).

On to `CC#CC[C@@H](C/C=C\NC(=O)[C@@H](NC(=O)\C=C/C=C\C(C)=C\[C@H](C)[C@@H]1CC=C(OC)C(=O)O1)C(C)(C)C)OC(N)=O` [Compound 41], for which the IC50 in data set [1] was 0.000104 µg/mL and 0.183 nM; in data set [2], 0.000265 µg/mL and 0.465 nM; in data set [3], 0.00018 µg/mL and 0.316 nM; in data set [4] it was 0.00011 µg/mL and 0.193 nM; in data set [5] (setting [7]), 0.075 to 0.14 ng/mL; in data set [5] (setting [8]) it was 0.00016 µg/mL and 0.29 nM. In addition, the IC50 in data set [5] (setting [9]) amounted to 0.19 nM.

As for “Rituximab: anti-CD20 monoclonal antibody [reference compound]”, the “cytotoxic activity” value in data set [6] (50 μg/mL) was “virtually inactive”. The “cytotoxic activity in DR curves” value in data set [6] (5.0E+01 to 2.62E-05 μg/mL) was “rather inactive”.
